Data taken from PMC5007466, “VCP recruitment to mitochondria causes mitophagy impairment and neurodegeneration in models of Huntington's disease” (Nature Communications, 2016).

Experiments:
[1] = tested on: HdhQ111 / HdhQ7 mouse striatal cells; test: VCP mitochondrial level, mouse striatal cells (western blot); type: cell-based
Method: Immortalized striatal cell lines HdhQ111 mutant and HdhQ7 wt cells were obtained from the CHDI Foundation. Cells were cultured in DMEM supplemented with 10% FBS, 100 μg/ml penicillin, 100 μg ml^−1 streptomycin, and 400 μg ml^−1 G418. Cells were grown at 33 °C in a 5% CO2 incubator. Cells within 14 passages were used in all experiments.
For silencing Htt and VCP in HD striatal cells, control siRNA, mouse Htt and mouse VCP siRNA were purchased from Thermo Fisher Scientific. HdhQ7 and HdhQ111 cells were transfected either with control siRNA, or Htt or VCP siRNA using TransIT-TKO Transfection Reagent (Mirus Bio, LLC), according to the manufacturer's instructions. The sequences for the siRNAs used in this study are as follows: mouse Htt, 5′-[…]-3′; Mouse VCP, 5′-GAGAGCAACCUUCGUAAG-3′; control non-targeting siRNA, 5′-TTCTCCGAACGTGTCACGT-3′.
Cells were washed with cold PBS and incubated on ice for 30 min in a lysis buffer (250 mM sucrose, 20 mM HEPES-NaOH, pH 7.5, 10 mM KCl, 1.5 mM MgCl2, 1 mM EDTA, protease inhibitor cocktail and phosphatase inhibitor cocktail). Mouse brains were minced and homogenized in the lysis buffer and then placed on ice for 30 min. Collected cells or tissue were disrupted 20 times by repeated aspiration through a 25-gauge needle, followed by a 30-gauge needle. The homogenates were spun at 800 g for 10 min at 4 °C, and the resulting supernatants were spun at 10,000 g for 20 min at 4 °C. The pellets were washed with lysis buffer and spun at 10,000 g again for 20 min at 4 °C. The final pellets were suspended in lysis buffer containing 1% Triton X-100 and were mitochondrial-rich lysate fractions. The supernatant was centrifuged at 100,000 g, 4 °C, for 1 h, the pellets were suspended in lysis buffer containing 1% Triton X-100 as ER fractions. The final supernatant was cytosolic fractions. The mitochondrial proteins VDAC, the ER protein WFS1 and the cytosolic protein Enolase were used as loading controls for mitochondrial, ER and cytosolic fractions, respectively.
Protein concentrations were determined by Bradford assay. […]

[2] = tested on: HD patient-iPS cell derived neurons; test: Neurite length of DARPP-32/Tuj1-positive medium spiny neurons; type: cell-based, human; conditions: DARPP-32/Tuj1-positive neurons, 1 μM per day for 5 days versus TAT
Method: iPS cells from a normal subject and a HD patient (carrying 41 CAG repeats) were differentiated into neurons using the protocol from our previous studies. Briefly, iPS cells were plated onto 6-well plates precoated with 2.5% Matrigel and allowed to reach 90% confluence in feeder-free medium. For the first 10 days, cells were treated with SB431542 (10 μM; Tocris Bioscience) and Noggin (100 ng/ml) in Neural Media (NM) containing Neurobasal and DMEM (1:1), B27 supplement minus vitamin A (50 × , Invitrogen), N2 supplement (100 × , Invitrogen), GlutaMax (Invitrogen, 100 × ), FGF2 ([…]) and EGF ([…]), 100 units per ml penicillin and 100 μg ml^−1 streptomycin). For the next 10 days, cells were treated with human recombinant Sonic hedgehog (SHH, 200 ng/ml), DKK1 (100 ng/ml) and BDNF (20 ng/ml) and 10 μM Y27632 (Sigma) in neuronal differentiation medium containing Neurobasal and DMEM (1:3), B27, N2, GlutaMax and PS. […]
In patient-iPS cell-derived neurons, to ensure the observation of mitochondria in the medium spiny neurons, the cells were stained with a mitochondrial marker (anti-TOM20, 1:500) and markers for medium spiny neurons (DARPP-32, 1:200, Epitomics). The quantitation of neurite length was conducted only in the neurons immunopositive for both DARPP-32 and Tuj1 (neuron-specific class III beta-tubulin, 1:5,000, Covance). At least 50 neurons/group were counted.

[3] = tested on: YAC128 mice; test: General motility, YAC128 (24 h locomotor activity); type: in vivo, mouse; conditions: YAC128, 3 mg/kg/day from 3 months; from 6 to 12 months of age, n=15–20
From the text: YAC128 (FVB-Tg(YAC128)53Hay/J, JAX stock number: 004938) breeders (FVB/N genetic background) were purchased from Jackson Laboratories. The YAC128 mice contain a full-length human huntingtin gene modified with a 128 CAG repeat expansion in exon 1. The mice were mated, bred and genotyped in the animal facility of Case Western Reserve University. Male mice at the ages of 2, 3, 6, 9 and 12 months were used in the study.
YAC128 mice (Tg) and their age-matched wt littermates were implanted with an osmotic pump containing TAT control peptide or HV-3 peptide (3 mg/kg/day, each) starting from the age of 3 months. The pump was replaced once every month. By the age of 12 months, the treatments were terminated and the mouse samples were harvested for analysis.
Gross locomotor activity was assessed in R6/2 mice and age-matched wt littermates at the ages of 13 weeks and in YAC128 mice and age-matched wt littermates at the ages of 2, 3, 6, 9, and 12 months. In an activity chamber (Omnitech Electronics, Inc), mice were placed in the center of the chamber and allowed to explore while being tracked by an automated beam system (Vertax, Omnitech Electronics Inc). Distance moved, horizontal, vertical, and rearing activities were recorded. Because R6/2 mice were sensitive to changes in environment and handling, we only conducted one-hour locomotor activity analysis for R6/2 mice and wt littermates. […]

CSCC[C@H](NC(=O)[C@@H](NC(=O)[C@H](CC(C)C)NC(=O)[C@@H](NC(=O)[C@H](Cc1c[nH]cn1)NC(=O)CCCCCNC(=O)[C@H](CCCNC(=N)N)NC(=O)[C@H](CCCNC(=N)N)NC(=O)[C@H](CCCNC(=N)N)NC(=O)[C@H](CCC(N)=O)NC(=O)[C@H](CCCNC(=N)N)NC(=O)[C@H](CCCNC(=N)N)NC(=O)[C@H](CCCCN)NC(=O)[C@H](CCCCN)NC(=O)[C@H](CCCNC(=N)N)NC(=O)CNC(=O)[C@@H](N)Cc1ccc(O)cc1)C(C)C)C(C)C)C(=O)N[C@@H](CS)C(=O)N[C@@H](C)C(=O)N[C@H](C(N)=O)[C@@H](C)O [HV-3]
VCP translocation to mitochondria ([1]; HdhQ111 cells, HV-3 3 μM per day for 3 days versus TAT, n=3): abolished VCP translocation to the mitochondria | VCP mitochondrial levels, wt ([1]; wt counterparts of the HD models): only minor effects | neurite shortening [2]: reduced neurite shortening | general movement activity [3]: improved general movement activity
